Paper PMC5590800 (Biomolecules & Therapeutics, 2017)
Values joined by “and” are separate entries in the source; they are usually repeats but may differ in a detail not shown here. Identical values can stand only once. Like-named read-outs stand apart in the source and are kept apart here.

Tests used:
[1] = In vitro daunomycin cytotoxicity assay; type: cell-based; conditions: human
[2] = oral administration; ref Sezgin-Bayindir et al., 2013; Cai et al., 2014; cited from earlier work
[3] = type: in vivo, Sprague-Dawley rats
[4] = male, Sprague-Dawley, rat, plasma, iv, 2 mg/kg
[5] = male, Sprague-Dawley, rat, plasma, po, 25 mg/kg

Row | Clt of PTX ([3]; PTX IV 2 mg/kg, rats, 2 mg/kg) | Relative BA of PTX ([3]; PTX PO 25 mg/kg alone (oral control), rats) [%] | Absolute BA of PTX ([3]; PTX PO 25 mg/kg alone vs IV 2 mg/kg, rats) [%] | Clt/F of PTX ([3]; PTX PO 25 mg/kg alone, rats) [L/h] | AUC(0-inf) [3, 4] [ng·h/mL] | AUC(0-t) [3, 4] [ng·h/mL] | C0 [3, 4] [ng/mL] | Vd [3, 4] [L] | half-life [3, 4] [h] | k el [3, 4] [s⁻¹] | AUC(0-inf) [3, 5] [ng·h/mL] | AUC(0-t) [3, 5] [ng·h/mL] | Cmax [3, 5] [ng/mL] | Tmax [3, 5] [h] | Vd/F [3, 5] [L] | half-life [3, 5] [h] | k el [3, 5] [s⁻¹] | Compound | IC50 at 2 h [1] [µM] | Oral bioavailability of PTX [2] [%]
1 | – | – | – | – | – | – | – | – | – | – | – | – | – | – | – | – | – | COc1cccc2c1C(=O)c1c(O)c3c(c(O)c1C2=O)C[C@@](O)(C(C)=O)C[C@@H]3O[C@H]1C[C@H](N)[C@H](O)[C@H](C)O1 [DNM, Daunomycin] | 10.4 ± 0.53 | –
2 | 0.328 L/h and 0.328 ± 0.097 L/h | 100.0 | 2.0 | 12.7 ± 2.8 | 1790 ± 522 | 1660 ± 499 | 3330 ± 1160 | 2.06 ± 0.36 | 4.55 ± 1.02 | 4.47e-05 | 564 ± 116 | 409 ± 47.2 | 60.6 ± 10.3 | 4.2 ± 1.1 | 73.6 ± 14.9 | 4.26 ± 1.62 | 5.06e-05 | CC(=O)O[C@H]1C(=O)[C@@]2(C)[C@H]([C@H](OC(=O)c3ccccc3)[C@]3(O)C[C@H](OC(=O)[C@H](O)[C@@H](NC(=O)c4ccccc4)c4ccccc4)C(C)=C1C3(C)C)[C@]1(OC(C)=O)CO[C@@H]1C[C@@H]2O [PTX, Paclitaxel] | – | < 5
